Results as given in ChEMBL document CHEMBL4673218, “Kojyl cinnamate esters are peroxisome proliferator-activated receptor α/γ dual agonists” (Bioorg Med Chem, 2018).
Activity calls are given as the source filed them. The calls are words filed in the database; no cut-off is given here.

Key:
[1] = target: T1, PPAR alpha/gamma (Homo sapiens) (UniProt P37231+Q07869); assay: Agonist activity at PPARalpha/PPARgamma in human NHEK cells assessed as upregulation of HMGCS2 mRNA at 10 uM incubated for 3 days by qRT-PCR analysis; type: cell-based; conditions: filed as agonist, time 3.0 day
[2] = target: T1, PPAR alpha/gamma (Homo sapiens); assay: Agonist activity at PPARalpha/PPARgamma in human AT-MSC cells assessed as upregulation of FABP4 mRNA at 10 uM incubated for 3 days by qRT-PCR analysis; type: cell-based; conditions: Adipose tissue derived mesenchymal stem cell, filed as agonist, time 3.0 day
[3] = test system: NHEK; assay: Inhibition of UVB-induced PTGS2 mRNA in human NHEK cells at 10 uM incubated for 24 hrs by qRT-PCR analysis; type: functional, cell-based
[4] = test system: NHEK; assay: Inhibition of UVB-induced MMP1 level in human NHEK cells at 10 uM incubated for 24 hrs by ELISA; type: functional, cell-based
[5] = target: T1, PPAR alpha/gamma (Homo sapiens); assay: Agonist activity at PPARalpha/PPARgamma in human NHEK cells assessed as upregulation of FADS2 mRNA at 10 uM incubated for 3 days by qRT-PCR analysis; type: cell-based; conditions: filed as agonist, time 3.0 day
[6] = target: T1, PPAR alpha/gamma (Homo sapiens); assay: Agonist activity at PPARalpha/PPARgamma in human AT-MSC cells assessed as upregulation of SCD1 mRNA at 10 uM incubated for 3 days by qRT-PCR analysis; type: cell-based; conditions: Adipose tissue derived mesenchymal stem cell, filed as agonist, time 3.0 day
[7] = test system: Adipose tissue derived mesenchymal stem cell; assay: Induction of adipogenesis in human AT-MSC cells assessed as increase in intracellular lipid accumulation at 30 uM in IDX medium incubated for 5 days by Oil Red O staining based inverted phase microscopy relative to IDX control; type: functional; conditions: time 5.0 day
[8] = target: T1, PPAR alpha/gamma (Homo sapiens); assay: Agonist activity at PPARalpha/PPARgamma in human AT-MSC cells assessed as upregulation of HMGCR mRNA at 10 uM incubated for 3 days by qRT-PCR analysis; type: cell-based; conditions: Adipose tissue derived mesenchymal stem cell, filed as agonist, time 3.0 day
[9] = target: T1, PPAR alpha/gamma (Homo sapiens); assay: Agonist activity at PPARalpha/PPARgamma in human AT-MSC cells assessed as upregulation of HMGCS2 mRNA at 10 uM incubated for 3 days by qRT-PCR analysis; type: cell-based; conditions: Adipose tissue derived mesenchymal stem cell, filed as agonist, time 3.0 day
[10] = Induction of adipogenesis in human AT-MSC assessed as adiponectin secretion in IDX medium incubated for 5 days by ELISA; type: functional; conditions: adipose tissue derived mesenchymal stem cell
[11] = target: T2, Peroxisome proliferator-activated receptor gamma (Homo sapiens) (UniProt P37231); assay: (§1) Binding affinity to human recombinant PPARgamma by Cheng-Prusoff equation based competitive binding TR-FRET assay; conditions: filed as agonist
T2 sequence (whole entry): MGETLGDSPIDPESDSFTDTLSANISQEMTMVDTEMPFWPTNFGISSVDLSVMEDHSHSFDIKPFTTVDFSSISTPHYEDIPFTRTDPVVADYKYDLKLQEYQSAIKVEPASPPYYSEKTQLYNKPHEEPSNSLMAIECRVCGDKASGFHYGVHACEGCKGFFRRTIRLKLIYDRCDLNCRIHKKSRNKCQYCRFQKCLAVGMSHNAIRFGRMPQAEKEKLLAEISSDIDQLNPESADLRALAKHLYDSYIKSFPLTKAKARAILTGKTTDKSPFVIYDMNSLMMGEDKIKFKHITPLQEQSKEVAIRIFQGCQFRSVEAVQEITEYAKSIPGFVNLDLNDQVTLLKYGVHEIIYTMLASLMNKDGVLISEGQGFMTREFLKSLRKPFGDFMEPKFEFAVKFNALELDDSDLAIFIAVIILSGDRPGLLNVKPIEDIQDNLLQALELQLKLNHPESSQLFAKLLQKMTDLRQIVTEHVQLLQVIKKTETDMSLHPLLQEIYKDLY

[12] = target: T3, Peroxisome proliferator-activated receptor gamma (Homo sapiens, UniProt P37231); assay: as §1
T3 sequence (P37231 whole entry): T2 sequence (whole entry)

[13] = target: T1, PPAR alpha/gamma (Homo sapiens); assay: Agonist activity at PPARalpha/PPARgamma in human NHEK cells assessed as upregulation of SCD1 mRNA at 10 uM incubated for 3 days by qRT-PCR analysis; type: cell-based; conditions: filed as agonist, time 3.0 day
[14] = target: T1, PPAR alpha/gamma (Homo sapiens); assay: Agonist activity at PPARalpha/PPARgamma in human AT-MSC cells assessed as upregulation of adiponectin mRNA at 10 uM incubated for 3 days by qRT-PCR analysis; type: cell-based; conditions: Adipose tissue derived mesenchymal stem cell, filed as agonist, time 3.0 day
[15] = target: T1, PPAR alpha/gamma (Homo sapiens); assay: Agonist activity at PPARalpha/PPARgamma in human AT-MSC cells assessed as upregulation of ACACB mRNA at 10 uM incubated for 3 days by qRT-PCR analysis; type: cell-based; conditions: Adipose tissue derived mesenchymal stem cell, time 3.0 day
[16] = target: T4, Peroxisome proliferator-activated receptor alpha (Homo sapiens) (UniProt Q07869); assay: (§2) Binding affinity to human recombinant PPARalpha by Cheng-Prusoff equation based competitive binding TR-FRET assay; conditions: filed as agonist
T4 sequence (whole entry): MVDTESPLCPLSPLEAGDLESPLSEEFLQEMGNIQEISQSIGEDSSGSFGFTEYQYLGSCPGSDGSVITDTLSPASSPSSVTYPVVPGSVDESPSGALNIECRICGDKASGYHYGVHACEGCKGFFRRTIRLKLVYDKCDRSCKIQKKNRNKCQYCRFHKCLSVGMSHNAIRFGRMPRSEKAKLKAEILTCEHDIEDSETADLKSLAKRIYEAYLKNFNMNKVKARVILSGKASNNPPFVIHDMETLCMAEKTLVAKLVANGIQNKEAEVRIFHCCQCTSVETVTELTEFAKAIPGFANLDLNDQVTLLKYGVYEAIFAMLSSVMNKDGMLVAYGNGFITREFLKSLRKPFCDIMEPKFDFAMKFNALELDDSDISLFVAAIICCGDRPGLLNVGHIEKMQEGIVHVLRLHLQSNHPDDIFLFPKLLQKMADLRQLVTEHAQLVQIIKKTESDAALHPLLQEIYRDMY

[17] = target: T5, Peroxisome proliferator-activated receptor alpha (Homo sapiens, UniProt Q07869); assay: as §2
T5 sequence (Q07869 whole entry): T4 sequence (whole entry)

[18] = target: T1, PPAR alpha/gamma (Homo sapiens); assay: Agonist activity at PPARalpha/PPARgamma in human AT-MSC cells assessed as upregulation of FASN mRNA at 10 uM incubated for 3 days by qRT-PCR analysis; type: cell-based; conditions: Adipose tissue derived mesenchymal stem cell, time 3.0 day
[19] = target: T1, PPAR alpha/gamma (Homo sapiens); assay: Agonist activity at PPARalpha/PPARgamma in human AT-MSC cells assessed as upregulation of FADS2 mRNA at 10 uM incubated for 3 days by qRT-PCR analysis; type: cell-based; conditions: Adipose tissue derived mesenchymal stem cell, filed as agonist, time 3.0 day
[20] = test system: NHEK; assay: Inhibition of UVB-induced MMP1 mRNA in human NHEK cells at 10 uM incubated for 24 hrs by qRT-PCR analysis; type: functional, cell-based
[21] = test system: NHEK; assay: Inhibition of UVB-induced PGE2 level in human NHEK cells at 10 uM incubated for 24 hrs by ELISA; type: functional, cell-based
[22] = target: T1, PPAR alpha/gamma (Homo sapiens); assay: Agonist activity at PPARalpha/PPARgamma in human NHEK cells assessed as upregulation of FADS1 mRNA at 10 uM incubated for 3 days by qRT-PCR analysis; type: cell-based; conditions: filed as agonist, time 3.0 day
[23] = target: T1, PPAR alpha/gamma (Homo sapiens); assay: Agonist activity at PPARalpha/PPARgamma in human NHEK cells assessed as upregulation of ACACB mRNA at 10 uM incubated for 3 days by qRT-PCR analysis; type: cell-based; conditions: time 3.0 day
[24] = Induction of adipogenesis in human AT-MSC assessed as adiponectin secretion at 30 uM in IDX medium incubated for 5 days by ELISA relative to IDX control; type: functional, Adipose tissue derived mesenchymal stem cell; conditions: time 5 day
[25] = target: T1, PPAR alpha/gamma (Homo sapiens); assay: Agonist activity at PPARalpha/PPARgamma in human NHEK cells assessed as upregulation of HMGCR mRNA at 10 uM incubated for 3 days by qRT-PCR analysis; type: cell-based; conditions: time 3.0 day
[26] = target: T1, PPAR alpha/gamma (Homo sapiens); assay: Agonist activity at PPARalpha/PPARgamma in human NHEK cells assessed as upregulation of FASN mRNA at 10 uM incubated for 3 days by qRT-PCR analysis; type: cell-based; conditions: time 3.0 day
[27] = test system: Adipose tissue derived mesenchymal stem cell; assay: Induction of adipogenesis in human AT-MSC cells assessed as increase in lipid droplet at 30 uM in IDX medium incubated for 5 days by Oil Red O staining based inverted phase microscopy relative to IDX control; type: functional; conditions: time 5.0 day
[28] = Induction of adipogenesis in human AT-MSC assessed as adiponectin secretion at 30 uM in IDX medium incubated for 5 days by ELISA (reference value: 100 +/- 15 pg/ml); type: functional, Adipose tissue derived mesenchymal stem cell; conditions: time 5 day
[29] = test system: NHEK; assay: Inhibition of UVB-induced MMP1 mRNA in human NHEK cells at 1 uM incubated for 24 hrs by qRT-PCR analysis; type: functional, cell-based
[30] = test system: NHEK; assay: Inhibition of UVB-induced PTGS2 mRNA in human NHEK cells at 1 uM incubated for 24 hrs by qRT-PCR analysis; type: functional, cell-based
[31] = test system: NHEK; assay: Inhibition of UVB-induced PGE2 level in human NHEK cells at 1 uM incubated for 24 hrs by ELISA; type: functional, cell-based
[32] = test system: NHEK; assay: Inhibition of UVB-induced MMP1 level in human NHEK cells at 1 uM incubated for 24 hrs by ELISA; type: functional, cell-based
[33] = Induction of adipogenesis in human AT-MSC assessed as adiponectin secretion at 300 uM in IDX medium incubated for 5 days by ELISA (reference value: 100 +/- 15 pg/ml); type: functional, Adipose tissue derived mesenchymal stem cell; conditions: time 5 day

For `COc1cccc(/C=C/C(=O)OCc2cc(=O)c(O)co2)c1OC`, the Activity [1] was “Active”, the Activity [2] was “Active” and the inhibition [3] was “Active”. For the same compound, the inhibition [4] was “Active”, the Activity [5] was “Active” and the Activity [6] was “Active”. For the same compound, the Activity [7] was “Active”, the Activity [8] was “Active” and the Activity [9] was “Active”. For the same compound, the EC50 [10] was 14.8 µM, the Activity [11] was “Dose-dependent effect” and the Ki [12] was 6.7 µM. The Activity [13] was “Active”, the Activity [14] was “Active” and the Activity ([15]; filed as agonist) was “Active”. For the same compound, the Activity [16] was “Dose-dependent effect”, the Ki [17] was 8 µM and the Activity ([18]; filed as agonist) was “Active”. For the same compound, the Activity [19] was “Active”, the inhibition [20] was “Active” and the inhibition [21] was “Active”. The Activity [22] was “Active”, the Activity [23] was “inactive” and the “fold change (FC)” value [24] was 2.81. The Activity [25] was “inactive”, the Activity [26] was “inactive” and the Activity [27] was “Active”. The Activity [28] was 281 pg/mL.
In the case of `COc1cccc(/C=C/C(=O)OCc2cc(=O)c(O)co2)c1`, the Activity [7] is reported as “Active”, the EC50 [10] is reported as 36.6 µM and the “fold change (FC)” value [24] is reported as 2.65. For the same compound, the Activity [27] was “Active” and the Activity [28] was 265 pg/mL.
`COc1ccc(/C=C/C(=O)OCc2cc(=O)c(O)co2)cc1OC` showed an Activity [28] of 120 pg/mL.
Work on `COc1cc(OC)c(/C=C/C(=O)OCc2cc(=O)c(O)co2)c(OC)c1` yielded an Activity [28] of 87 pg/mL.
With `Cc1c(C)c2c(c(C)c1O)CCC(C)(COc1ccc(CC3SC(=O)NC3=O)cc1)O2` (configuration not stated) [TROGLITAZONE] the EC50 [10] was 0.86 µM, the inhibition [29] was “Active” and the inhibition [30] was “inactive”. The inhibition [31] was “inactive” and the inhibition [32] was “Active”.
`COc1cc(/C=C/C(=O)OCc2cc(=O)c(O)co2)cc(OC)c1OC` showed an Activity [28] of 137 pg/mL.
In the case of `Cc1cccc(Nc2cc(Cl)nc(SCC(=O)O)n2)c1C`, the Activity [2] is reported as “Active”, the inhibition [3] is reported as “Active” and the inhibition [4] is reported as “Active”. For the same compound, the Activity [6] was “Active”, the Activity [8] was “Active” and the fold change (FC) [9] was 4.53. For the same compound, the Activity [14] was “Active”, the Activity [15] was “inactive” and the Activity [18] was “inactive”. For the same compound, the Activity [19] was “Active”, the inhibition [20] was “Active” and the inhibition [21] was “Active”. For the same compound, the Activity [23] was “inactive”, the Activity [25] was “inactive” and the Activity [26] was “inactive”.
For `COc1ccc(/C=C/C(=O)OCc2cc(=O)c(O)co2)cc1`, the Activity [28] was 138 pg/mL.
With `COc1ccccc1/C=C/C(=O)OCc1cc(=O)c(O)co1` the Activity [7] was “Active”, the EC50 [10] was 20.6 µM and the “fold change (FC)” value [24] was 2.21. For the same compound, the Activity [27] was “Active” and the Activity [28] was 221 pg/mL.
`COc1ccc(/C=C/C(=O)OCc2cc(=O)c(O)co2)c(OC)c1OC` gave an Activity [28] of 137 pg/mL.
Compound `COc1cc(/C=C/C(=O)OCc2cc(=O)c(O)co2)cc(OC)c1` has an Activity [28] of 67 pg/mL.
`CC(=O)Oc1ccccc1C(=O)O` [ASPIRIN] showed an Activity [33] of 197 pg/mL.
Work on `COc1cc(OC)c(OC)cc1/C=C/C(=O)OCc1cc(=O)c(O)co1` yielded an Activity [28] of 103 pg/mL.
Work on `O=C(/C=C/c1ccc2c(c1)OCO2)OCc1cc(=O)c(O)co1` yielded an Activity [28] of 164 pg/mL.
